Article PMC8230565, “Bisavenathramide Analogues as Nrf2 Inductors and Neuroprotectors in In Vitro Models of Oxidative Stress and Hyperphosphorylation” (Antioxidants, 2021)

Key:
Nrf2 = Nrf2 induction, luciferase assay in AREc32 cells; type: cell-based; details: Arec32, 24 h, read-out: CD (concentration that doubles luciferase activity)
Method: AREc32 cells (kindly shared by Dr. Professor Ronald C. Wolf, University of Dundee, Dundee, UK) were grown in Dulbecco’s modified Eagle medium (DMEM) with glutamax, supplemented with 10% fetal bovine serum (FBS), 1% of antibiotics penicillin–streptomycin, and geneticin (0.8 mg/mL, G418) (GIBCO, Madrid, Spain). Cells were harvested in a […] flask with 11 mL of the specified medium, incubated at 37 °C and 5% CO2, and they were transferred to a new flask every 4–6 days, when the confluence was around 80%. Cells were seeded in 96-well white plates (20,000 cells/well) using 100 μL/well. After 24 h, cells were treated with compounds at desired concentrations (1, 5, 10, 15 μM) for 24 h, including tert-butyl hydroquinone (TBHQ, 10 μM) as a positive control. Another 24 h later, luciferase activity was measured through a bioluminescence assay using a “Luciferase assay system” (Promega E1500, Madison, WI, USA), following the protocol given by the provider, and quantifying luminescence in an Orion II microplate luminometer (Berthold, Germany). Measurements were performed by duplicate, and the values were normalized to basal luminescence considered as 1. Nrf2 induction potency was expressed as CD values, i.e., the concentrations required to double the luciferase activity, and are calculated from dose–response curves generated by plotting fold induction of control conditions vs. compound concentration, and fitted by non-linear regression and data interpolated to value 2.
The ability of our compounds to induce Nrf2 was evaluated in the AREc32 cell line, an MCF7 stable clone that is transfected with eight copies of the luciferase reporter gene immediately after the ARE sequence. Therefore, Nrf2 activation and the subsequent transcription of the genes dependent on the ARE element also leads to expression of luciferase, which can be quantitated using a luminescence assay. AREc32 cells were incubated for 24 h with 0.3, 3, 10, 30, and 60 μM concentrations of compounds 3, and a luminescence measurement allowed CD values to be obtained. This parameter characterizes the Nrf2-inducing ability of each compound and represents the concentration required to double the luciferase activity compared to its basal expression.

[1] = DPPH radical scavenging assay
Method: The direct antioxidant effects of compounds 3 were investigated by studying their radical-scavenging effect on the 2,2-diphenyl-1-picrylhydrazyl free radical (DPPH^•). Thus, a 100 μL volume of a methanol solution of each compound was added to 200 μL of 100 μM methanolic DPPH^•, and the solution was kept in the dark at 37 °C for 30 min in a 96-well microliter plate. After this incubation, the absorption at 490 nm of each solution was measured with a microplate reader in order to quantitate its decrease. A blank reading was also taken to calculate the amount of remaining DPPH^•. The radical-scavenging activity exerted by compounds 3 was determined by comparison with a 10 μL of MeOH-treated blank group. Ascorbic acid, a well-known antioxidant acting as a radical scavenger, was used as reference. All samples were analyzed in triplicate. Percent inhibition of the DPPH^• radical was calculated using the equation shown below, where AbsCtrl is the absorbance of the blank group and Abss is the absorbance of the samples containing compounds 3. For each compound showing a percentage of inhibition above 60%, the IC50 value was determined using a dose–response curve obtained from measurements corresponding to at least six concentrations. %Scavenger=AbsCtrl−AbsS/AbsCtrl×100
The radical scavenging activity of all compounds was first studied by the DPPH assay, which measures the ability of antioxidant compounds to donate a hydrogen atom to the violet 2,2-diphenyl-1-picrylhydrazyl radical and transform it into a nonradical species. Thus, it is generally considered to belong to the hydrogen atom transfer (HAT) category of methods for measurement of antioxidant activity.

[2] = molecular target: AChE (Electrophorus electricus) (Electrophorus electricus, UniProt O42275); assay: Acetylcholinesterase inhibition (Ellman's method); type: biochemical
Method: Ellman’s method was employed to determine the inhibitory capacity of the compounds against AChE (Electrophorus electricus). The compounds were studied at 10 μM concentration, at room temperature, using PBS (0.1 M, pH 8) as solvent. Transparent 48-well microplates (COSTAR 3548) were used and, in each one, a blank was included. The compounds were incubated with the enzyme (0.09 U/mL) and with DTNB (0.35 mM) for 10 min. Afterwards, the enzyme substrate acetylthiocholine (0.35 mM) was added to a final volume of 1 mL. The microplate was incubated at room temperature for 15 min. Then, the absorbance was measured at 420 nm using the microplate reader FluoStar Optima (BMG Labtech, Ortenberg, Baden-Württemberg, Germany). The enzymatic activity was calculated by subtracting the blank absorbance from the sample absorbance and dividing the result by the absorbance of the maximum activity subtracted from blank absorbance, and the result was multiplied by one hundred to give a percentage. The inhibitory activity was calculated by subtracting the enzymatic activity from one hundred. Selected compounds were assayed at 0.3, 1, 3, 10, and 30 μM concentrations to obtain inhibition curves. The results were plotted versus concentration to obtain IC50 values through sigmoidal non-lineal adjustment. All the experiments were performed at least in triplicate.
Bisavenanthramide B-6 and heliotropamide A have been identified as acetylcholinesterase inhibitors. This precedent, coupled with our interest in the potential characterization of our compounds as multitarget-directed ligands, led us to investigate them as inhibitors of this enzyme, an important anti-Alzheimer target.

Chain of AChE (Electrophorus electricus) (O42275 24-633): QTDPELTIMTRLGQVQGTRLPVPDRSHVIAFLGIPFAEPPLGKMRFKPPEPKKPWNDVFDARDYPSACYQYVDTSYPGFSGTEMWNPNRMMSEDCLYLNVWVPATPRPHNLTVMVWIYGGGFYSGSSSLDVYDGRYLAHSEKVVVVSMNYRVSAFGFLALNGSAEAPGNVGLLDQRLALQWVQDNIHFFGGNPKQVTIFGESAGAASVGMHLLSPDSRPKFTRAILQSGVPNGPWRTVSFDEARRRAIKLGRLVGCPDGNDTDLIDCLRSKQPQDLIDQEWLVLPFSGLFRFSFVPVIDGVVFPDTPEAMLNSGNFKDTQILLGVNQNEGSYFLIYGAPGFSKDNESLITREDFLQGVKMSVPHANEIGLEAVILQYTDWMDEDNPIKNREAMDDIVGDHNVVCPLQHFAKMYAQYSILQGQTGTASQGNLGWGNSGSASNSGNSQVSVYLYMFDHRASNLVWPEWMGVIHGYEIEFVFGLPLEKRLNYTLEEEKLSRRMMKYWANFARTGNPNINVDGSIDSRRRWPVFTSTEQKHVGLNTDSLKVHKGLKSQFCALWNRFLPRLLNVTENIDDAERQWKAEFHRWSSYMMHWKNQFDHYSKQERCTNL

In the case of `COC(=O)C1=C(C)N(CCc2ccccc2)C(=O)/C1=C\c1c[nH]c2ccccc12` [Compound 3o, Methyl (Z)-4-((1H-Indol-3-yl)methylene)-2-methyl-5-oxo-1-phenethyl-4,5-dihydro-1H-pyrrole-3-carboxylate], the EC (2-fold luciferase activity) (Nrf2) is reported as 36 ± 10.6 µM, the “DPPH Scavenging at 0.1 mM, %” value ([1]; 0.1 mM compound) is reported as 12.7 ± 1.9% and the “DPPH Scavenging at 1 mM, %” value ([1]; 1 mM compound) is reported as 49.9 ± 3.4%. For the same compound, the inhibition at 10 µM ([2]; 10 μM compound, read-out: % Inhibition of EeAChE at 10 μM) was 39.8% and the IC50 ([2]; n in brackets, read-out: IC50 (EeAChE)) was 12.5 ± 1.4 µM.
